Results as given in patent publication US7888286B2, “Method of selectively controlling morning glory (Ipomoea) spp” (Bayer CropScience AG, priority 2006, dated 2011).
Structures can show the parent of a compound that is named as a salt.

What was measured:
morning glory spp. [1] = test: Herbicidal property on weeds; type: in vivo; details: for Herbicidal activity: all of the tested morning glory spp.
Abutilon theophrasti = test: Herbicidal property on weeds; details: in vivo
[2] = test system: morning glory spp. such as Ipomoea triloba L. and Ipomoea hederacea Jacq.; test: Morning glory spp. control test with bialaphos solution (soybean field); type: in vivo; details: for Herbicidal effect 1 week after: water 100 L/10 a, sprayed up to 20 cm above ground
Description: On Aug. 9, 2005, a bialaphos solution (active ingredient amount: 18%, used in the form of the sodium salt bialaphos-sodium, amount calculated for bialaphos) was sprayed (solution amount: 500 to 1500 mL/10 a, water amount: 100 L/10 a) to morning glory spp. (height: 55 cm to 70 cm) such as Ipomoea triloba L. and Ipomoea hederacea Jacq. generated between ridges in a soybean field and coiled around soybean, from land surface up to a height of 20 cm above ground, and the herbicidal effect thereafter was observed.

Ipomoea lacunosa L. = test: Morning glory spp. control test: glufosinate (salt) sprayed only on upper portion of stem (pot test); type: in vivo; set-up: key to Effect, leaf 6 / Effect, leaf 5 / Effect, leaf 4 / Effect, leaf 3 / Effect, leaf 2 / Effect, leaf 1 / Effect, root / Effect, peak portion of stem / Effect, leaf 8 / Effect, leaf 7: +++ complete death; ++ almost death; + partial death; − no effect
Description: In the case of spraying of glufosinate (salt) only on the upper portion of morning glory spp:
Ipomoea lacunosa L. (eight leaves) in a pot was tested. A 200-fold diluted solution of glufosinate (salt) was sprayed only on the upper portion of a stem while preventing spraying on the lower portion thereof. Thereafter, effects on respective portions were observed.

Sida spinosa L. = test: Herbicidal property on weeds; details: in vivo
Solanum carolinense = test: Herbicidal property on weeds; details: in vivo
Ipomoea triloba L. = test: Morning glory spp. control test: glufosinate (salt) sprayed only on lower half portion of hill; type: in vivo; set-up: key: +++ complete death; ++ almost death; + partial death; − no effect; details: treated Aug. 13, 2005, examined August 23
Description: (§1) In the case of spraying of glufosinate (salt) only on the lower half portion of a hill of morning glory spp:
(§2) Ipomoea hederacea Jacq. and Ipomoea triloba L. generated in the form of grapevine and at the edge of a soybean field in Anjo City, Aichi Prefecture were tested. A 200-fold diluted solution of glufosinate was sprayed only on the lower half portion of the hill while covering the upper half portion thereof with plastic film so that the solution was not sprayed thereon. Thereafter, effects on the lower and upper half portions were observed.

morning glory spp. [3] = test: Control machine-spraying of glufosinate (salt) on soybean inter-ridge: herbicidal effect; type: in vivo; details: 500 mL/10 a in 100 L/10 a water
Description: (§3) Soybean cultivation in the Tokai region is often carried out with large scale by farming associates and large scale farmhouses. Under such circumstances, morning glory spp. cause a serious problem in soybean fields during its growth period, and its controlling method is required to be established quickly. In soybean fields in Anjo City, Aichi Prefecture showing a problem of morning glory spp., a test for proving applicability of controlling morning glory spp. was performed using a control machine-spraying intending laborsaving.
(§4) A commercially available spraying apparatus was attached to the front side of a riding-type control machine, and glufosinate was sprayed from near ground edge. The nozzle position can be varied depending on ridge width and soybean height. In a theory of spraying a herbicide, the herbicide is introduced from a herbicide tank through a hose so that the herbicide can be sprayed on a lower part between ridges (suspending mode). Some farmhouses devise by themselves this spraying apparatus.
In spraying (FIGS. 1, 2 and 3), morning glory spp. developed almost all over the field, and some of them coiled around soybean, the peak portion thereof extending up to over the head portion of soybean. FIG. 1 is a photograph showing full view of glufosinate spraying. FIG. 2 is a photograph showing glufosinate (salt) sprayed part. FIG. 3 is a photograph showing a herbicidal process of glufosinate (salt). […] FIG. 4 is a photograph showing the killing effect of glufosinate (salt) ranging to the peak portion (shown with an arrow) of the stem of Ipomoea triloba L. (14 days after spraying, August 23). […] This effect appeared even in the peak portion of the stem extending up to over the head portion of the soybean, and in this portion, leaves and stems of morning glory spp. turned to yellow. […] From these phenomena, it was believed that the morning glory spp. show very higher sensitivity to glufosinate (salt) than soybean.

soybean = test: Control machine-spraying of glufosinate (salt) on soybean inter-ridge: phytotoxicity and bean weight of soybean; type: in vivo; details: for Bean weight: soybean field with rampant morning glory spp., 500 mL/10 a sprayed August 9, crop November 11, non-sprayed district 96 ± 21
Description: as §3, §4

HIROHAFUURINHOZUKI = test: Herbicidal property on weeds; details: in vivo
Aeschynomene indica = test: Herbicidal property on weeds; details: in vivo
Ipomoea hederacea Jacq. = test: Morning glory spp. control test: glufosinate (salt) sprayed only on lower half portion of hill; type: in vivo; set-up: key to Effect, upper half portion of hill / Effect, lower half portion of hill: +++ complete death; ++ almost death; + partial death; − no effect
Description: as §1, §2

[4] = not sprayed, 200-fold diluted solution sprayed from peak to between sixth and seventh leaves, examined November 6
[5] = sprayed region, 200-fold diluted solution sprayed on upper portion of stem, treated Oct. 23, 2005, examined November 6
[6] = scattering to soybean, 500 mL/10 a

CC(C)N.O=C(O)CNCP(=O)(O)O [glyphosate isopropylammonium]
Herbicidal activity at the field level (morning glory spp. [1]; at the field level in this test range): insufficient | Manifestation of the activity (morning glory spp. [1]; on these plants (morning glory spp. and the other tested weeds)): specifically slow manifestation of the activity

CC(C)N1C(=O)c2ccccc2NS1(=O)=O [Pentazone]
Herbicidal activity (morning glory spp. [1]): lower activity | Herbicidal activity (Abutilon theophrasti): high activity

C[C@H](NC(=O)[C@H](C)NC(=O)[C@@H](N)CCP(C)(=O)O)C(=O)O [bialaphos solution, bialaphos]
Herbicidal effect 1 week after ([2]; solution amount 500 mL/10 a): died up to the peak portion of vine | Herbicidal effect 1 week after ([2]; solution amount 1000 mL/10 a): died up to the peak portion of vine | Herbicidal effect 1 week after ([2]; solution amount 1500 mL/10 a): died up to the peak portion of vine | Onset of effect after the treatment ([2]; sprayed from land surface up to 20 cm above ground, 500 to 1500 mL/10 a): observed from the next day after the treatment

CP(=O)(O)CCC(N)C(=O)O (stereo not shown) [glufosinate (salt), glufosinate]
Effect, leaf 1 (Ipomoea lacunosa L.; [4]): − | Effect, leaf 2 (Ipomoea lacunosa L.; [4]): − | Effect, leaf 3 (Ipomoea lacunosa L.; [4]): − | Effect, leaf 4 (Ipomoea lacunosa L.; [4]): − | Effect, leaf 5 (Ipomoea lacunosa L.; [4]): ++ | Effect, leaf 6 (Ipomoea lacunosa L.; [4]): ++ | Effect, root (Ipomoea lacunosa L.; [4]): − | Effect in the lower leaves and in root after spraying only the upper portion of the stem (Ipomoea lacunosa L.; see Table 2): not observed | Effect under the sprayed region after spraying only the upper portion of the stem (Ipomoea lacunosa L.; see Table 2): observed in one to two leaves under the sprayed region | Effect, leaf 7 (Ipomoea lacunosa L.; [5]): +++ | Effect, leaf 8 (Ipomoea lacunosa L.; [5]): +++ | Effect, peak portion of stem (Ipomoea lacunosa L.; [5]): +++ | Herbicidal activity (Sida spinosa L.): high activity | Herbicidal activity (Solanum carolinense): high activity | Herbicidal activity at low herbicidal amount (morning glory spp. [1]; 100 mL/10 a): high activity | Herbicidal activity (morning glory spp. [1]): high activity | Herbicidal activity (Abutilon theophrasti): high activity | Effect, lower half portion of hill (Ipomoea triloba L.; 200-fold diluted solution sprayed on lower half portion (sprayed portion)): +++ | Effect, upper half portion of hill (Ipomoea triloba L.; 200-fold diluted solution sprayed on lower half portion only, upper half not sprayed, hills around 70 cm): +++ | Herbicidal effect 4 days after spraying (morning glory spp. [3]; August 13): most of leaves at grapevine-form parts of the morning glory spp. died | Herbicidal effect 14 days after spraying (morning glory spp. [3]; August 23): most of the morning glory spp. died up to the peak portion of the stem | Onset of herbicidal effect after spraying (morning glory spp. [3]; soybean field): observed from the next day after spraying | Phytotoxicity in soybean on spraying only the lower portion of a stem of morning glory spp. (soybean; control machine spraying in soybean field): scarce phytotoxicity | Phytotoxicity in the cotyledon and the first leaf of soybean (soybean; [6]): observed | Phytotoxicity in the upper leaves of soybean (soybean; [6]): little phytotoxicity | Bean weight (soybean; listed as Glufosinate (salt)): 193 ± 29 kg/10 a | Bean weight (soybean; listed as glufosinate): 193 kg/10 a | Herbicidal activity (HIROHAFUURINHOZUKI): high activity | Herbicidal activity (Aeschynomene indica): high activity | Effect, lower half portion of hill (Ipomoea hederacea Jacq.; 200-fold diluted solution sprayed on lower half portion (sprayed portion), treated Aug. 13, 2005, examined August 23): +++ | Effect, upper half portion of hill (Ipomoea hederacea Jacq.; 200-fold diluted solution sprayed on lower half portion only, upper half not sprayed, treated Aug. 13, 2005, examined August 23, hills around 70 cm): +++ | Where activity appeared after spraying only the lower half portion of the hill (Ipomoea hederacea Jacq.; morning glory spp. (Ipomoea hederacea Jacq. and Ipomoea triloba L., see Table 1)): appeared not only in the lower half portion of the hill but also in the peak thereof
